Results reported in PubChem BioAssay (NCI).
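Exposure lasted 48 hours, with cells grown in 96-well plates and compounds tested at five concentrations. TGI: total growth inhibition.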

Columns and labels:
Test in all cases: NCI-60 cell line screen, 48 h
[1] = test system: IGROV1 ovarian
[2] = test system: T-47D breast
[3] = test system: MDA-MB-231 breast
[4] = test system: UACC-62 melanoma
[5] = test system: NCI-H226 lung
[6] = test system: NCI/ADR-RES ovarian
[7] = test system: COLO 205 colon
[8] = test system: HOP-62 NSCLC
[9] = test system: SNB-75 CNS
[10] = test system: K-562 leukemia
[11] = test system: HS 578T breast
[12] = test system: RPMI-8226 leukemia
[13] = test system: CAKI-1 renal
[14] = test system: EKVX NSCLC
[15] = test system: SR leukemia
[16] = test system: U251 CNS
[17] = test system: TK-10 renal
[18] = test system: A498 renal
[19] = test system: KM12 colon
[20] = test system: 786-0 renal
[21] = test system: OVCAR-8 ovarian
[22] = test system: HT29 colon
[23] = test system: OVCAR-4 ovarian
[24] = test system: M14 melanoma
[25] = test system: SN12C renal
[26] = test system: PC-3 prostate
[27] = test system: A549 NSCLC
[28] = test system: CCRF-CEM leukemia
[29] = test system: SF-539 CNS
[30] = test system: SK-OV-3 ovarian
[31] = test system: UO-31 renal
[32] = test system: UACC-257 melanoma
[33] = test system: OVCAR-3 ovarian
[34] = test system: HCC-2998 colon
[35] = test system: HOP-92 NSCLC
[36] = test system: MCF7 breast
[37] = test system: MDA-N
[38] = test system: NCI-H23 lung
[39] = test system: SK-MEL-5 melanoma
[40] = test system: SNB-19 CNS
[41] = test system: DU-145 prostate
[42] = test system: MDA-MB-435
[43] = test system: MALME-3M melanoma
[44] = test system: SK-MEL-2 melanoma
[45] = test system: HCT-15 colon
[46] = test system: NCI-H460 lung
[47] = test system: ACHN renal
[48] = test system: HCT-116 colon
[49] = test system: MOLT-4 leukemia
[50] = test system: LOX IMVI melanoma
[51] = test system: BT-549 breast
[52] = test system: SK-MEL-28 melanoma
[53] = test system: SF-268 CNS
[54] = test system: OVCAR-5 ovarian
[55] = test system: SW-620 colon
[56] = test system: HL-60(TB) leukemia
[57] = test system: SF-295 CNS
[58] = test system: RXF 393 renal
[59] = test system: NCI-H522 lung

CC1(c2cccc(C(F)(F)F)c2)CC(c2cccc(C(F)(F)F)c2)=C(C#N)C(=C(C#N)C#N)N1 (configuration not stated)
TGI [1]: 30.6 µM
TGI [2]: 41.7 µM
TGI [3]: 40.7 µM
TGI [4]: 31.3 µM
TGI [5]: 58.6 µM
TGI [6]: 43 µM
TGI [7]: 30.8 µM
TGI [8]: 32.7 µM
TGI [9]: 33.6 µM
TGI [10]: 34.2 µM
TGI [11]: 43.2 µM
TGI [12]: 47 µM
TGI [13]: 33.3 µM
TGI [14]: 34 µM
TGI [15]: 30 µM
TGI [16]: 35 µM
TGI [17]: 30.8 µM
TGI [18]: 32.7 µM
TGI [19]: 32.9 µM
TGI [20]: 31.2 µM
TGI [21]: 40.2 µM
TGI [22]: 36.2 µM
TGI [23]: 30.8 µM
TGI [24]: 37.4 µM
TGI [25]: 32.8 µM
TGI [26]: 34.7 µM
TGI [27]: 39.9 µM
TGI [28]: 24.1 µM
TGI [29]: 34.9 µM
TGI [30]: 29.6 µM
TGI [31]: 33.4 µM
TGI [32]: 31.7 µM
TGI [33]: 24.6 µM
TGI [34]: 31.8 µM
TGI [35]: 10.6 µM
TGI [36]: 34.9 µM
TGI [37]: 33.6 µM
TGI [38]: 38.2 µM
TGI [39]: 29 µM
TGI [40]: 40 µM
TGI [41]: 31 µM
TGI [42]: 32.6 µM
TGI [43]: 32.4 µM
TGI [44]: 41.1 µM
TGI [45]: 33.1 µM
TGI [46]: 45.8 µM
TGI [47]: 31 µM
TGI [48]: 29.2 µM
TGI [49]: 38.5 µM
TGI [50]: 34.1 µM
TGI [51]: 40.9 µM
TGI [52]: 33.9 µM
TGI [53]: 31.1 µM
TGI [54]: 32.8 µM
TGI [55]: 52.1 µM
TGI [56]: 35.1 µM
TGI [57]: 31 µM
TGI [58]: 31.4 µM

COc1cccc(-c2nc(N)c(C#N)c3c2CCS(=O)(=O)c2ccc(C)cc2-3)c1
TGI [1]: > 100 µM
TGI [2]: > 100 µM
TGI [3]: > 95.3 µM
TGI [4]: > 100 µM
TGI [5]: > 100 µM
TGI [6]: > 88 µM
TGI [7]: > 56.4 µM
TGI [8]: > 100 µM
TGI [9]: 54 µM
TGI [10]: 11 µM
TGI [11]: 48 µM
TGI [13]: > 100 µM
TGI [14]: > 100 µM
TGI [15]: 5.14 µM
TGI [16]: > 100 µM
TGI [17]: > 100 µM
TGI [18]: > 81.8 µM
TGI [19]: > 58.4 µM
TGI [20]: > 100 µM
TGI [21]: > 100 µM
TGI [22]: > 49.1 µM
TGI [23]: > 100 µM
TGI [24]: > 100 µM
TGI [25]: > 100 µM
TGI [26]: > 100 µM
TGI [27]: > 100 µM
TGI [28]: 65.1 µM
TGI [29]: > 100 µM
TGI [30]: > 100 µM
TGI [31]: > 100 µM
TGI [32]: > 100 µM
TGI [33]: > 100 µM
TGI [34]: > 100 µM
TGI [35]: > 100 µM
TGI [36]: > 100 µM
TGI [37]: > 42.6 µM
TGI [38]: > 100 µM
TGI [39]: > 63.3 µM
TGI [40]: > 100 µM
TGI [41]: > 100 µM
TGI [42]: > 100 µM
TGI [43]: > 100 µM
TGI [44]: > 100 µM
TGI [45]: > 100 µM
TGI [59]: > 25.6 µM
TGI [46]: > 100 µM
TGI [47]: > 100 µM
TGI [48]: > 100 µM
TGI [49]: 87.1 µM
TGI [50]: > 100 µM
TGI [51]: > 100 µM
TGI [52]: > 100 µM
TGI [53]: > 100 µM
TGI [54]: > 100 µM
TGI [55]: > 100 µM
TGI [56]: 37.5 µM
TGI [57]: > 100 µM

COc1cc(C)cc2c1C(=O)C(NC(C)=O)=CC2=O
TGI [1]: > 100 µM
TGI [2]: > 100 µM
TGI [3]: > 100 µM
TGI [4]: > 100 µM
TGI [5]: > 100 µM
TGI [6]: > 100 µM
TGI [7]: > 100 µM
TGI [8]: > 100 µM
TGI [9]: > 100 µM
TGI [10]: > 100 µM
TGI [11]: > 100 µM
TGI [12]: > 100 µM
TGI [13]: > 100 µM
TGI [14]: > 100 µM
TGI [15]: > 100 µM
TGI [16]: > 100 µM
TGI [17]: > 100 µM
TGI [18]: > 100 µM
TGI [19]: > 100 µM
TGI [20]: > 100 µM
TGI [21]: > 100 µM
TGI [22]: > 100 µM
TGI [23]: 74.5 µM
TGI [24]: > 100 µM
TGI [25]: > 100 µM
TGI [26]: > 100 µM
TGI [27]: > 100 µM
TGI [28]: > 100 µM
TGI [29]: > 100 µM
TGI [30]: > 100 µM
TGI [31]: > 100 µM
TGI [32]: > 100 µM
TGI [33]: > 100 µM
TGI [34]: > 100 µM
TGI [35]: > 100 µM
TGI [36]: > 100 µM
TGI [37]: 32.8 µM
TGI [38]: > 100 µM
TGI [39]: > 100 µM
TGI [40]: > 100 µM
TGI [41]: > 100 µM
TGI [42]: 31.3 µM
TGI [43]: > 100 µM
TGI [44]: > 100 µM
TGI [45]: > 100 µM
TGI [59]: > 100 µM
TGI [46]: > 100 µM
TGI [47]: > 100 µM
TGI [48]: > 100 µM
TGI [49]: 88.7 µM
TGI [51]: > 100 µM
TGI [52]: > 100 µM
TGI [53]: > 100 µM
TGI [54]: > 100 µM
TGI [55]: > 100 µM
TGI [56]: 53.2 µM
TGI [57]: > 100 µM
TGI [58]: > 100 µM

O=C(Cn1c(C(=O)/C=C/c2ccc(Cl)c(Cl)c2)nc2ccccc21)c1ccccc1
TGI [1]: 79 µM
TGI [2]: > 100 µM
TGI [3]: 70.5 µM
TGI [4]: > 100 µM
TGI [5]: > 100 µM
TGI [6]: 73 µM
TGI [7]: 36.2 µM
TGI [8]: > 100 µM
TGI [10]: > 100 µM
TGI [11]: 56.1 µM
TGI [12]: > 100 µM
TGI [14]: 42.8 µM
TGI [15]: 80 µM
TGI [16]: > 100 µM
TGI [17]: 76.6 µM
TGI [18]: 67.4 µM
TGI [19]: 56.5 µM
TGI [20]: 44 µM
TGI [22]: 45.5 µM
TGI [23]: 73.2 µM
TGI [24]: 72.2 µM
TGI [25]: 34.4 µM
TGI [26]: > 100 µM
TGI [27]: 59.8 µM
TGI [28]: 33.3 µM
TGI [29]: 48.2 µM
TGI [30]: > 100 µM
TGI [31]: 56 µM
TGI [32]: > 100 µM
TGI [33]: 31.9 µM
TGI [34]: 35.8 µM
TGI [35]: 96.1 µM
TGI [36]: 82.2 µM
TGI [37]: 47.2 µM
TGI [38]: > 100 µM
TGI [39]: 35.4 µM
TGI [40]: 86.1 µM
TGI [41]: > 100 µM
TGI [42]: 42.4 µM
TGI [43]: 86.2 µM
TGI [44]: 47.1 µM
TGI [45]: 91.6 µM
TGI [46]: 39.4 µM
TGI [47]: 93.5 µM
TGI [48]: 35.1 µM
TGI [49]: > 100 µM
TGI [50]: 39.1 µM
TGI [51]: 99.3 µM
TGI [52]: > 100 µM
TGI [53]: > 100 µM
TGI [54]: 50.2 µM
TGI [55]: > 100 µM
TGI [56]: 36.7 µM
TGI [58]: 57.2 µM
